Laboratory results from publication PMC8998827, “Ligandability Assessment of Human Glutathione Transferase M1-1 Using Pesticides as Chemical Probes” (International Journal of Molecular Sciences, 2022).
Where two headings read alike, the source gives them in different places.

Tests used:
hGSTM1-1 [1] = target: T1, hGSTM1-1 (Homo sapiens, UniProt P09488); assay: biochemical; parameters: made in house; host or cells: E. coli
T1 sequence (P09488 1-218): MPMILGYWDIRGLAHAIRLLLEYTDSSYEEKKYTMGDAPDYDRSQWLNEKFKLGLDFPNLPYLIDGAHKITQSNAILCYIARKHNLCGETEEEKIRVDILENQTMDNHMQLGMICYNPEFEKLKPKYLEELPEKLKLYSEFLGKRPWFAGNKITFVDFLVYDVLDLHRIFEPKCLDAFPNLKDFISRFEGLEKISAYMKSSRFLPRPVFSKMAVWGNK
Method: (§1) Reduced GST assays were performed by monitoring the formation of the conjugate of CDNB (1 mM) with GSH (2.5 mM) at 340 nm (ε = 9.6 mM^−1cm^−1) for 120 s according to a published method. One unit of enzyme activity is defined as the amount of enzyme that produces 1 μmol of product per minute under the assay conditions.
Pesticide screening and inhibition potency evaluation towards hGSTM1-1 were carried out in the assay system described above in the presence of 25 μM pesticide diluted in acetone. During the assay, no measurable pesticide/GSH reaction was detected. The percentage of enzyme inhibition (I) was calculated using the following equation:%I = [(Ro − Ri)/Ro] × 100(3) where Ro is the unit of enzyme activity increase for the uninhibited reaction and Ri is the rate of increase for the inhibited reaction. Both Ri and Ro correspond to the same substrate concentration.

hGSTM1-1 [2] = target: T1, hGSTM1-1; assay: IC50 determination, concentration-response in CDNB-GSH assay; assay type: biochemical; parameters: made in house; host or cells: E. coli
Method: as §1
[…]. The IC50 values were determined using the program GraphPad Prism (GraphPad Software Inc., Version 7, San Diego, CA, USA).

hGSTM1-1 [3] = target: T1, hGSTM1-1; assay: biochemical; conditions: for Effect on inactivation of hGSTM1-1 by GS-ESF: pH 7.4
From the text: Furthermore, the catalytic activity of hGSTM1-1 cannot be regained by extensive dialysis or gel filtration on Sephadex G-25. […] The Kapp calculated by inactivation experiments is in good agreement to that determined by kinetic inhibition analysis.
The rate of inactivation was followed by periodically removing samples for assays of enzymatic activity.

hGSTM1-1 [4] = target: T1, hGSTM1-1; assay: Kinetic inhibition study with pirimicarb (Lineweaver-Burk and secondary plots); assay type: biochemical; parameters: made in house; host or cells: E. coli; conditions: for Ki: Ki (binding to free enzyme)
Method: Initial velocities for the catalyzed reaction of the isoenzyme hGSTM1-1 with GSH as a variable substrate were performed at 37 °C in a total volume of 1 mL mixture containing 0.75 μg of the isoenzyme GSTM1-1, 0.1 M potassium phosphate buffer (pH 6.5), 1 mM CDNB and different concentrations of GSH in the range of 0.0175–3.75 mM in the presence of different concentrations of the insecticide pirimicarb (0–40 μM). With CDNB as a variable substrate, the reaction mixture total volume (1 mL) contained 0.75 μg of the isoenzyme GSTM1-1, 0.1 M potassium phosphate buffer (pH 6.5), 1 mM GSH and CDNB in the concentration range of 0.015–1.5 mM in the presence of different concentrations of pirimicarb (0–30 μM). The kinetic parameters were determined using the computer program GraphPad Prism 7.

[5] = 25 μM pesticide, CDNB (1 mM)-GSH (2.5 mM) assay, mean of three assays, variation less than 5%, read-out: Inhibition (%)
[6] = 37 °C, pH 6.5, CDNB-GSH assay, read-out: IC50
[7] = 25 μM pesticide, CDNB (1 mM)-GSH (2.5 mM) assay, mean of three assays, variation less than 5%
[8] = GSH as variable substrate, 37 °C, pH 6.5

Compound | inhibition at 25 µM (hGSTM1-1 [1]; [5]) | further results
CC1(C)[C@H](C(=O)O[C@H](C#N)c2cccc(Oc3ccccc3)c2)[C@@H]1/C=C(\Cl)C(F)(F)F (racemic) [Lambda-Cyhalothrin] | 0% | –
CCOCN(C(=O)CCl)c1c(C)cccc1CC [Acetochlor, acetochlor] | 13.8% | –
CCc1cccc(CC)c1N(COC)C(=O)CCl [Alachlor, alachlor] | 32% | –
CC1(C)C(C=C(Cl)Cl)C1C(=O)OC(C#N)c1cccc(Oc2ccccc2)c1 (stereo not drawn) [Alpha cypermethrin] | 0% | –
CCNc1nc(Cl)nc(NC(C)C)n1 [Atrazine] | 28.7% | –
O=C(Nc1ccccc1-c1ccc(Cl)cc1)c1cccnc1Cl [Boscalid] | 20.4% | –
CCCCOCN(C(=O)CCl)c1c(CC)cccc1CC [Butachlor, butachlor] | 35.3% | IC50 (hGSTM1-1 [2]; [6]): 236 ± 4.5 µM
CNC(=O)Oc1cccc2ccccc12 [Carbaryl] | – | inhibition at 25 µM (hGSTM1-1 [1]): 0%
COC(=O)Nc1nc2ccccc2[nH]1 [Carbedazim] | – | Inhibition (%) (hGSTM1-1 [1]; [7]): 8.00%
CNC(=O)Oc1cccc2c1OC(C)(C)C2 [Carbofuran] | 0% | –
CCOP(=S)(OCC)Oc1nc(Cl)c(Cl)cc1Cl [Chlorpyrifos] | 0% | –
CN/C(=N\[N+](=O)[O-])NCc1cnc(Cl)s1 [Clothianidin] | – | inhibition at 25 µM (hGSTM1-1 [1]): 0%
CC1(C)[C@H](C(=O)O[C@H](C#N)c2cccc(Oc3ccccc3)c2)[C@@H]1C=C(Br)Br [Deltamethrin] | 0% | –
CCOC(=O)Nc1cccc(OC(=O)Nc2ccccc2)c1 [Desmedipham] | 0% | –
COP(=O)(OC)OC=C(Cl)Cl [Dichloros] | – | Inhibition (%) (hGSTM1-1 [1]; [7]): 1.48%
O=C(NC(=O)c1c(F)cccc1F)Nc1ccc(Cl)cc1 [Diflubenzuron] | 0% | –
CN(C)C(=O)Nc1ccc(Cl)c(Cl)c1 [Diuron] | 15% | –
O=S1OCC2C(CO1)C1(Cl)C(Cl)=C(Cl)C2(Cl)C1(Cl)Cl (stereo not drawn) [Endosulfan] | 14.7% | –
CSC1=N[C@@](C)(c2ccccc2)C(=O)N1Nc1ccccc1 [Fenamidone] | 0% | –
CC1(C(=O)Nc2ccc(O)c(Cl)c2Cl)CCCCC1 [Fenhexamid, fenhexamid] | 35.3% | IC50 (hGSTM1-1 [2]; [6]): 278 ± 14.5 µM

Compound | inhibition at 25 µM (hGSTM1-1 [1]; [5]) | further results
CC(C)C(C(=O)OC(C#N)c1cccc(Oc2ccccc2)c1)c1ccc(Cl)cc1 (stereo not drawn) [Fenvalerate] | 0% | –
O=[N+]([O-])c1ccc(Oc2ccc(C(F)(F)F)cc2[N+](=O)[O-])cc1 [Fluorodifen] | 16.7% | –
CO/N=C(/C1=NOCCO1)c1ccccc1Oc1ncnc(Oc2ccccc2Cl)c1F [Fluoxastrobin] | 18.5% | –
CCO[PH](=O)O [Fosetyl-Al] | – | Inhibition (%) (hGSTM1-1 [1]; [7]): 0.66%
O=[N+]([O-])NC1=NCCN1Cc1ccc(Cl)nc1 [Imidacloprid] | 0% | –
CC(C)NC(=O)N1CC(=O)N(c2cc(Cl)cc(Cl)c2)C1=O [Iprodione] | 19.5% | –
CO/N=C(/C(=O)OC)c1ccccc1COc1ccccc1C [Kresoxim-methyl] | 14.5% | –
Cl[C@H]1[C@H](Cl)[C@@H](Cl)[C@@H](Cl)[C@H](Cl)[C@H]1Cl [Lindane] | 13% | –
CCOC(=O)CC(SP(=S)(OC)OC)C(=O)OCC (stereo not drawn) [Malathion, malathion] | 12.7% | –
C#CCOc1ccc(CCNC(=O)C(OCC#C)c2ccc(Cl)cc2)cc1OC (stereo not drawn) [Mandipropamid] | – | Inhibition (%) (hGSTM1-1 [1]; [7]): 21.47%
COCC(=O)N(c1c(C)cccc1C)C(C)C(=O)OC (stereo not drawn) [Metalaxyl] | 19.8% | –
Cc1cccc(C)c1N(Cn1cccn1)C(=O)CCl [Metazachlor, metazachlor] | 19.7% | –
CNC(=O)ON=C(C)SC [Methomyl] | 20% | –
CCc1cccc(C)c1N(C(=O)CCl)C(C)COC (stereo not drawn) [Metolachlor] | 9.2% | –
CNC(=O)CSP(=O)(OC)OC [Omethoate] | – | inhibition at 25 µM (hGSTM1-1 [1]): 3.21%
CC1(C)C(C=C(Cl)Cl)C1C(=O)OCc1cccc(Oc2ccccc2)c1 (stereo not drawn) [Permethrin] | 11.2% | –
COC(=O)Nc1cccc(OC(=O)Nc2cccc(C)c2)c1 [Phenmedipham] | 16% | –
CO/C=C(/C(=O)OC)c1ccccc1COc1cccc(C(F)(F)F)n1 [Picoxystrobin] | – | Inhibition (%) (hGSTM1-1 [1]; [7]): 10.56%
Cc1nc(N(C)C)nc(OC(=O)N(C)C)c1C [Pirimicarb, pirimicarb] | 52.3% | Kd (hGSTM1-1 [3]): 15.5 ± 1.2 µM; Effect on inactivation of hGSTM1-1 by GS-ESF (hGSTM1-1 [3]): diminish the observed rate of enzyme inactivation; IC50 (hGSTM1-1 [2]): 17.5 ± 1.75 µM; Ki' (binding to enzyme-CDNB complex) (hGSTM1-1 [4]; CDNB as variable substrate, 37 °C, pH 6.5, 1/Vmax app versus [Pirimicarb]): 44.7 ± 1.14 µM; Inhibition pattern (hGSTM1-1 [4]; GSH as variable substrate): mixed-type inhibition; Ki' (binding to enzyme-GSH complex) (hGSTM1-1 [4]; [8]): 35.97 ± 2.57 µM; Ki (hGSTM1-1 [4]; CDNB as variable substrate, 37 °C, pH 6.5, Slope versus [Pirimicarb]): 37.7 ± 1.03 µM; Ki (hGSTM1-1 [4]; [8]): 24.5 ± 2.86 µM; Inhibition pattern (hGSTM1-1 [4]; towards CDNB): mixed-type inhibition
CC(C)N(C(=O)CCl)c1ccccc1 [Propachlor, propachlor] | 11.2% | –

Compound | inhibition at 25 µM (hGSTM1-1 [1]; [5]) | further results
OC(Cc1ccccc1Cl)(Cn1nc[nH]c1=S)C1(Cl)CC1 (stereo not drawn) [Prothioconazole] | 26.5% | –
Cc1cc(C)nc(Nc2ccccc2)n1 [Pyrimethanil] | 7.49% | –
N[C@@H](CCC(=O)N[C@@H](CSCc1ccc([N+](=O)[O-])cc1)C(=O)NCC(=O)O)C(=O)O [S-nitrobenzyl-GSH, S-nitrobenzyl-glutathione] | – | Effect on inactivation of hGSTM1-1 by GS-ESF (hGSTM1-1 [3]): diminish the observed rate of enzyme inactivation
CCC(C)(C)C(=O)OC1=C(c2ccc(Cl)cc2Cl)C(=O)OC12CCCCC2 [Spirodiclofen] | – | Inhibition (%) (hGSTM1-1 [1]; [7]): 10.20%
Cc1cc(C)c(C2=C(OC(=O)CC(C)(C)C)C3(CCCC3)OC2=O)c(C)c1 [Spiromesifen] | – | Inhibition (%) (hGSTM1-1 [1]; [7]): 1.27%
CCOC(=O)OC1=C(c2cc(C)ccc2C)C(=O)N[C@]12CC[C@@H](OC)CC2 [Spirotetramat] | 29.3% | –
O=C(NC(=O)c1c(F)cccc1F)Nc1cc(Cl)c(F)c(Cl)c1F [Teflubenzuron] | 11.2% | –
CCNc1nc(Cl)nc(NC(C)(C)C)n1 [Terbuthylazine] | 12% | –
N#C/N=C1\SCCN1Cc1ccc(Cl)nc1 [Thiacloprid] | – | inhibition at 25 µM (hGSTM1-1 [1]): 10.7%
COP(=S)(OC)Oc1c(Cl)cc(C)cc1Cl [Tolclofos-methyl] | – | inhibition at 25 µM (hGSTM1-1 [1]): 9.32%
CC(C)(C)C(O)C(Oc1ccc(Cl)cc1)n1cncn1 (stereo not drawn) [Triadimenol] | 0% | –
CON=C(C(=O)OC)c1ccccc1CON=C(C)c1cccc(C(F)(F)F)c1 [Trifloxystrobin] | 2.88% | –
O=C(NC(=O)c1ccccc1Cl)Nc1ccc(OC(F)(F)F)cc1 [Triflumuron] | 22.7% | –
C=CC1(C)OC(=O)N(c2cc(Cl)cc(Cl)c2)C1=O (stereo not drawn) [Vinclozolin] | 14.3% | –
CCC(C)(NC(=O)c1cc(Cl)c(C)c(Cl)c1)C(=O)CCl (stereo not drawn) [Zoxamide] | 20% | –
O=S1OC[C@@H]2[C@H](CO1)[C@@]1(Cl)C(Cl)=C(Cl)[C@]2(Cl)C1(Cl)Cl (stereo partly drawn) [alpha Endosulfan] | – | Inhibition (%) (hGSTM1-1 [1]; [7]): 16.66%
Imidachlor | – | Inhibition (%) (hGSTM1-1 [1]; [7]): 10.14%
Spinosad | – | Inhibition (%) (hGSTM1-1 [1]; [7]): 0%
